Tests used:
Format in all cases: cell-based
[1] = test system: additional neuroblastoma cell lines with different genetic backgrounds; assay: Neurite outgrowth in multiple neuroblastoma cell lines; settings: 25 nM miRNA mimic, 5 days, among the top 5 miRNAs
Procedure: FIG. 3A-3G. Characterization of the effect of the top 5 neurite-inducing miRNA mimics on cell differentiation and growth in multiple neuroblastoma cell lines. (A-B) Effects of the identified top 5 miRNA mimics on neurite outgrowth. BE(2)-C cells were transfected with 25 nM miRNA mimics or control for 4 days, and relative neurite lengths were quantified as above. Shown are representative cell images analyzed to define neurite and cell body areas (A) and neurite length quantifications (B). (C) Effects of the 5 miRNA mimics on expression of differentiation markers. BE(2)-C cells were transfected with 25 nM of the indicated miRNA mimics or control, and proteins levels were examined after 4 days. (D) Effects of the 5 miRNA mimics on cell proliferation rate. (E) Effect of the 5 miRNAs on neurite outgrowth in multiple cell lines. Cells were transfected with 25 nM miRNA mimics or control, and neurite lengths were quantified as above after 5 days. (F-G) Effects of miR-506-3p (F) and miR-124-3p (G) mimics on expression of differentiation markers in multiple cell lines. *, p<0.05; **, p<0.01; ***, p<0.001; **** , p<0.0001.
Detection and Quantification of Neurite Outgrowth. Cells were plated and treated in 96-well plates. […] The neurite lengths associated with each treatment were calculated using the neurite definition defined for each specific cell line using the NeuroTrack system (Essen BioScience).

CDK4 [2] = assay: Western blot of endogenous CDK4 protein; settings: miRNA overexpression, 4 days
Text: (§1) FIG. 7A-7F. Validation of CDK4 and STAT3 as direct targets that mediate the differentiation-inducing function of miR-506-3p and miR-124-3p. (A) The predicted interactions between miR-506-3p/miR-124-3p and the target sites in the 3′UTR of STAT3 and CDK4 rnRNAs. The seed sequences are underlined. (SEQ ID NOS: 1, 2, 18, 19, 20, 21) (B-C) Validation of the target sites of miR-506-3p and miR-124-3p in the 3′UTRs of (B) CDK4 and (C) STAT3 by luciferase reporter assay. BE(2)-C cells were co-transfected with the indicated vectors and miRNA mimics or control oligo. After 72 h of transfection, cells were lysed and luciferase activity was measured. […] Cells were transfected as above for 4 days, and protein levels were measured by Western blots. […] Cells were transfected with the indicated oligos, and neurite lengths were measured as above after 4 days transfection. Shown are representative cell images analyzed to define neurites and cell body areas (G) and quantification of neurite length under the indicated treatment conditions (H). **, p<0.01; *** , p<0.001; ****, p<0.0001.
(§2) Western Blots. […] Protein concentration was determined using the Pierce BCA assay (Thermo Fisher Scientific). […] Bound antibodies were detected with secondary antibodies conjugated with horseradish peroxidase (HRP) visualized by enhanced chemiluminescent (ECL) substrate (Pierce).

THRB = assay: mRNA expression profiling (Illumina microarray); settings: change of expression induced by miRNA overexpression
Procedure: (§3) Mrna And Mirna Expression. Total RNA was isolated as previously described (Du et al., Mol Cancer Res, 2009, 7(8):1234-43). mRNA expression profiling was done using the Illumina mRNA WG-6 v3 microarray platform. miRNA expression was measured by qRT-PCR using TaqMan microRNA Assays (Life Technologies) with average expression of RNU44 RNA, RNU19 RNA, GAPDH mRNA and 18s rRNA used as controls for normalizing RNA loading.

STAT3 [3] = assay: mRNA expression profiling (Illumina microarray); settings: change of expression induced by miRNA overexpression
Procedure: as §3

RARG = assay: mRNA expression profiling (Illumina microarray); settings: change of expression induced by miRNA overexpression
Procedure: as §3

CEBPA = assay: mRNA expression profiling (Illumina microarray); settings: change of expression induced by miRNA overexpression
Procedure: as §3

RHOQ = assay: mRNA expression profiling (Illumina microarray); settings: change of expression induced by miRNA overexpression
Procedure: as §3

CDK4 [4] = assay: mRNA expression profiling (Illumina microarray); settings: change of expression induced by miRNA overexpression
Procedure: as §3

AHR = assay: mRNA expression profiling (Illumina microarray); settings: change of expression induced by miRNA overexpression
Procedure: as §3

PML = assay: mRNA expression profiling (Illumina microarray); settings: change of expression induced by miRNA overexpression
Procedure: as §3

BDNF = assay: mRNA expression profiling (Illumina microarray); settings: change of expression induced by miRNA overexpression
Procedure: as §3

SHC3 = assay: mRNA expression profiling (Illumina microarray); settings: change of expression induced by miRNA overexpression
Procedure: as §3

STAT3 [5] = assay: Western blot of endogenous STAT3 protein; settings: miRNA overexpression, 4 days
Text: as §1, §2

BE(2)-C cells = assay: Colony Formation Assay; settings: 25 nM mimic, 14 days
Procedure: Colony Formation Assay. Cells were transfected as specified and cultured overnight. 500 cells were re-plated in 10 cm dishes. After 14 days, colonies were visualized by staining with 1% crystal violet. Colony numbers and sizes were analyzed using Image J (NIH, Bethesda, Md.).

Substance: hsa-miR-506-3p: miRNA mimic (Dharmacon), mature sequence UAAGGCACCCUUCUGAGUAGA (SEQ ID NO: 1) (UAAGGCACCCUUCUGAGUAGA(1); as printed in the source, key not given here)
- Effect on neurite growth in multiple cell lines [1]: most potent effect on neurite growth
- Endogenous CDK4 protein expression level (CDK4 [2]): down-regulate
- Gene expression THRB (THRB): 1.04
- Gene expression STAT3 (STAT3 [3]): 0.75
- Gene expression RARG (RARG): 1.02
- Gene expression CEBPA (CEBPA): 0.88
- Gene expression RHOQ (RHOQ): 1.07
- Gene expression CDK4 (CDK4 [4]): 0.39
- Gene expression AHR (AHR): 1.19
- Gene expression PML (PML): 1.01
- Gene expression BDNF (BDNF): 1.04
- Gene expression SHC3 (SHC3): 1.08
- Endogenous STAT3 protein expression level (STAT3 [5]): down-regulate
- Colony formation (BE(2)-C cells): significantly reduce the ability of BE(2)-C to form colonies
